For test [1], the target named is T1, streptavidin (Streptomyces avidinii, UniProt P22629). In words: Biopanning of phages displaying SAV_1-3 against streptavidin (recovery rates from phage titers). The following applies: for recovery rate / retention after biopanning against streptavidin (in words): phages subjected to cyclization conditions, compared with linear and modified. Type of test: binding. The text has this: To independently verify that our strategy selects peptide binders, we first produced phages displaying SAV_1–3. Next, we performed the modification and cyclization reactions as described previously and determined phage titers before and after biopanning against streptavidin for phages featuring the linear precursor, the modified and cyclized peptides (Figure S12, see the Supporting Information for details). Consistent with the selection of peptide binders upon addition of our bifunctional cyclization units, the recovery rates for linear precursors were the lowest for all three peptides (Figure 6A). […] Featuring a reactive aldehyde moiety, this apparently higher affinity of the modified analogue of SAV_2 could be the result of the transient formation of an iminium ion via condensation with either the N-terminal amine or a lysine side chain of streptavidin.
Production of SAV_1-3 displaying bacteriophages: To validate the selection of cyclic peptide binders over their linear, and modified counterparts, phages displaying the peptide sequences of the […] most enriched hits SAV_1, SAV_2 and SAV_3 were panned against streptavidin either in linear, modified or cyclic peptide form. Phage titers pre- and post-streptavidin panning were determined and compared between all the samples.
In brief, 700 μL of densely grown E. coli TG1 overnight cultures harboring the […]
-fd plasmid (SAV_1), […]-fd plasmid (SAV_2) and
-fd plasmid (SAV_3) respectively, were used to inoculate 500 mL 2xYT-medium containing 30 μg/mL chloramphenicol. After incubation overnight (30 °C at 190 rpm) phage particles were purified and all cysteines were reduced with TCEP as described in Section
9. At this point the phage samples were split into 3 fractions of 2.5 mL. One sample was stored at 4 °C as ‘linear phage’ sample, the other two samples were modified with scaffold 3 (SAV_1 and SAV_2) or scaffold 4 (SAV_3) and purified as described in Section 9. […] Phage titers of these samples were determined ( Figure S12A) and all samples were diluted to approximately […] colony forming units using reduction buffer. […]

Test [2] has as its target T1, streptavidin. In words: HABA competition binding assay (competitive ligand-binding analysis). The following applies: for Kd: read-out: Kd,app. The text has this:
To pinpoint the binding mode of SAV_1–3 variants, we first synthesized the linear precursors and then prepared their modified and cyclized versions (Figure S13). […] To further elucidate the role of the free aldehyde for binding, we additionally prepared SAV_1–3 peptides that were modified with cyclization units bearing an alcohol moiety instead (Figures 6b and S13). […]
In vitro affinity measurements: To determine the affinity of the selected peptides for Streptavidin, a competitive binding experiment was performed similarly to previously described literature procedures.[7] In brief, for the competitive binding experiment, increasing amounts of peptide (final concentration 0.01 – 500 μM in 12.5% ACN + 0.1% TFA in PBS phosphate buffered saline (PBS, 137 mM NaCl, 2.7 mM KCl, 10 mM Na2HPO4, 2 mM […]
Streptavidin monomer (final concentration 1.5 mM/ 40 µM (SAV_1), 33 µM (SAV_2), 32 µM (SAV_3)). The reactions were allowed to reach equilibrium at room temperature (60 min.) and […]
IC50 values were obtained by fitting the average of three measurements to equation 1:
A = A + A500nm,max − A500nm,min (1) […]
where, A500nm is the measured absorbance at unbound peptide concentration, [L], and H is the Hill coefficient (H = 1 assumed for streptavidin-binding peptides). A500nm,min corresponds to the value measured in presence of 1 mM biotin and A500nm,max corresponds to absorbance values measured in absence of the peptide.
The Kd values for SAV_1_mod, SAV_1_cycl, and SAV_2_mod, SAV_1S_mod, and SAV_1S_cycl were obtained from their respective IC50 values using equation 2: […]

Like-named read-outs stand apart in the source and are kept apart here. Numbered stars: 1 amine (or outer) side, 2 acyl side, 3 side chain; on linkers, the order of the positions; unused ones are H or OH. Bridge positions count the residues as written; N and C are the ends. Square brackets hold non-standard residues; d marks the D form. Ends that are not written are not given here. Peptide text beside a SMILES is read from it. * marks the point of attachment. X1 = COc1ccc(CN([C@@H](C)C(=O)[*:2])[*:1])cc1N[*:3]; X3 = COc1ccc(CO)cc1NC(=O)C*; X2 = O=C(C[*:2])[*:1] Where only a bound is given, the exact number is not on record here.

T1 sequence (P22629 25-183): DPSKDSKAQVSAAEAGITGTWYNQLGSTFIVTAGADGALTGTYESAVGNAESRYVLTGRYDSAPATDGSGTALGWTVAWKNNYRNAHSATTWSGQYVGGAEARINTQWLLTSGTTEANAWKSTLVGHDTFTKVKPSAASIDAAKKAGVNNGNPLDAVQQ

Take `C[C@H](N)C(=O)N[C@@H](Cc1c[nH]c2ccccc12)C(=O)N[C@@H](Cc1c[nH]c2ccccc12)C(=O)N[C@H](C(=O)N[C@@H](CC(N)=O)C(=O)N[C@@H](CC(=O)O)C(=O)N[C@@H](Cc1ccccc1)C(=O)N[C@@H](CS)C(=O)N[C@@H](C)C(=O)N[C@@H](CS)C(=O)N[C@@H](C)C(N)=O)[C@@H](C)O` [SAV_1]: at streptavidin [1], the “recovery rate / retention after biopanning against streptavidin (in words)” value is listed as “highest levels of retention”. On to `C[C@H](N)C(=O)N[C@@H](Cc1c[nH]c2ccccc12)C(=O)N[C@@H](Cc1c[nH]c2ccccc12)C(=O)N[C@@H](CCC(=O)O)C(=O)N[C@@H](CC(=O)O)C(=O)N[C@@H](CCCNC(=N)N)C(=O)NCC(=O)N1CCC[C@H]1C(=O)N1CCC[C@H]1C(=O)N[C@@H](CS)C(=O)N[C@@H](C)C(N)=O` [SAV_2], for which, on streptavidin [2] (form of the peptide as worded at the place), the “affinity for streptavidin in the competition assay (in words)” value is listed as “the cyclic peptide did not display any affinity”. Besides, the “recovery rate after biopanning against streptavidin (in words)” value on streptavidin [1] (phages with modified (aldehyde) peptide, compared with linear and cyclized) is “highest recovery rates”. Take `COc1ccc(CO)cc1NC(=O)CSC[C@H](NC(=O)[C@H](C)NC(=O)[C@@H]1CSCC(=O)Nc2cc(ccc2OC)CN[C@@H](C)C(=O)N[C@@H](Cc2c[nH]c3ccccc23)C(=O)N[C@@H](Cc2c[nH]c3ccccc23)C(=O)N[C@@H]([C@@H](C)O)C(=O)N[C@@H](CC(N)=O)C(=O)N[C@@H](CC(=O)O)C(=O)N[C@@H](Cc2ccccc2)C(=O)N1)C(=O)N[C@@H](C)C(N)=O` [cyclic SAV_1] (H-[X1]WWTNDFCAC(X3)A-NH2; linker 1-8 via X2): the “factor/fold advantage in Kd,app of cyclic peptide over aldehyde-modified peptide” value at streptavidin [2] (cyclic vs aldehyde-modified form of the same sequence) is reported as approximately 20. As for `CSCC[C@H](NC(=O)CNC(=O)[C@@H](NC(=O)[C@H](CC(C)C)NC(=O)CNC(=O)[C@@H](NC(=O)[C@H](CC(N)=O)NC(=O)[C@H](CCCNC(=N)N)NC(=O)[C@H](C)N)C(C)C)C(C)C)C(=O)N[C@@H](CS)C(=O)N[C@@H](C)C(N)=O` [SAV_3], the “recovery rate / retention after biopanning against streptavidin (in words)” value on streptavidin [1] is “highest levels of retention”. For the compound AWWTNDFCA-NH2 [SAV_1S], the Kd at streptavidin [2] (aldehyde-modified peptide (Figure 6b, column 3), >10 μM given where no saturation) is 5.16 ± 0.59 µM; at streptavidin [2] (cyclic peptide (Figure 6b, column 4), >10 μM given where no saturation), 0.164 ± 0.078 µM; at streptavidin [2] (linear precursor peptide (Figure 6b, column 1), >10 μM given where no saturation), more than 10 µM. As for `COc1ccc2cc1NC(=O)CSC[C@@H](C(=O)N[C@@H](C)C(N)=O)NC(=O)[C@H](Cc1ccccc1)NC(=O)[C@H](CC(=O)O)NC(=O)[C@H](CC(N)=O)NC(=O)[C@H]([C@@H](C)O)NC(=O)[C@H](Cc1c[nH]c3ccccc13)NC(=O)[C@H](Cc1c[nH]c3ccccc13)NC(=O)[C@H](C)NC2` [cyclic SAV_1S] (H-[X1]WWTNDFCA-NH2; linker 1-8 via X2), on streptavidin [2] (cyclic peptide), the Kd turned out to be 0.164 ± 0.078 µM.

(Values after publication PMC8895403, “A Strategy to Select Macrocyclic Peptides Featuring Asymmetric Molecular Scaffolds as Cyclization Units by Phage Display” (Journal of the American Chemical Society, 2022).)
